Experimental data published in US8722616B2, “Anti-HIV peptides and methods of use thereof” (priority 2009, dated 2014).
≈ marks a conversion by molar mass, not a printed value. Like-named read-outs stand apart in the source and are kept apart here. No end group written: not given here.

Legend:
HIV-1IIIB = test: microbe, parasite or virus in culture
Experimental: (§1) Anti-HIV cytopathic effect inhibition assays were conducted as described (Buckheit et al. (1995) Antimicrob. Agents Chemother., 39:2718-2727). In brief, serially diluted peptides were added to a 96-well round bottom microtiter plate in triplicate. CEM-SS cells at a concentration of 2.5×10^3 cells per well and HIV-1IIIB at the appropriate pre-determined titer were sequentially added to the microtiter plate. The cultures were incubated at 5% CO2/37° C. for six days. Following the incubation, the microtiter plates were stained with XTT tetrazolium dye to evaluate the efficacy and toxicity of the test compound(s).
as §1, with “Cytopathic Effect (CPE) Inhibition Assay: The CPE assay was performed” for “Anti-HIV cytopathic effect inhibition assays were conducted”, “as previously” for “as”, “Briefly,” for “In brief,”, “compound was” for “peptides were”

CEM-SS cells = test: in vitro
Experimental: as §1
as §1, with “Cytopathic Effect (CPE) Inhibition Assay: The CPE assay was performed” for “Anti-HIV cytopathic effect inhibition assays were conducted”, “as previously” for “as”, “Briefly,” for “In brief,”, “compound was” for “peptides were”

in vitro = conditions: human
Experimental: as §1
as §1, with “Cytopathic Effect (CPE) Inhibition Assay: The CPE assay was performed” for “Anti-HIV cytopathic effect inhibition assays were conducted”, “as previously” for “as”, “Briefly,” for “In brief,”, “compound was” for “peptides were”

E. coli K12 = system: E. coli K12
Text: (§2) The frequently used residues identified in each kingdom may be applied to peptide design in different ways. First, new antimicrobial peptides can be designed based on ‘templates derived from naturally occurring antimicrobial peptides’. […] Second, new antimicrobial peptides can be designed by ‘combining database-derived peptide motifs’, consisting of frequently used residues. Using the motifs consisting of only residues Gly, Leu and Lys, a second peptide was designed. […] Third, new peptides can be designed based on ‘amino acid percentages obtained from statistical analysis of antimicrobial peptides’ from a specific kingdom or peptide family. Thus, a third peptide was designed in three steps. (i) The amino acid composition for MULTI-18 was obtained by multiplying the percentage of each residue with the total number of residues (18 here) in the target peptide. […] (iii) Multiple peptides can be obtained by combining the above motifs. Only one peptide was designed by following the amphipathic pattern for helical peptides.

[1] = system: methicin-resistant Staphylococcus aureus (MRSA) USA-300
Text: as §2

HIV = conditions: literature; cited from earlier work
[2] = Table 4, LL-37-derived peptides, CEM-SS cells

Cc1cn([C@H]2C[C@H](N=[N+]=[N-])[C@@H](CO)O2)c(=O)[nH]c1=O [AZT, reference compound]
EC50 (HIV-1IIIB; Human immunodeficiency virus 1): 0.007 µM
EC50 (HIV-1IIIB; Human immunodeficiency virus 1, CEM-SS): 0.007 µM
CC50 (CEM-SS cells; human, 6 days): > 0.5 µM
CC50 at 6 days (in vitro): > 0.5 µM

CC[C@H](C)[C@H](NC(=O)[C@H](CCCNC(=N)N)NC(=O)[C@H](CCC(N)=O)NC(=O)[C@@H](NC(=O)[C@@H](NC(=O)[C@H](CCCNC(=N)N)NC(=O)[C@H](CCCCN)NC(=O)[C@H](Cc1ccccc1)NC(=O)CN)[C@@H](C)CC)C(C)C)C(=O)N[C@@H](CCCCN)C(=O)N[C@@H](CC(=O)O)C(=O)N[C@@H](Cc1ccccc1)C(=O)N[C@@H](CC(C)C)C(=O)N[C@@H](CCCNC(=N)N)C(=O)N[C@@H](CC(N)=O)C(=O)N[C@@H](CC(C)C)C(=O)N[C@H](C(N)=O)C(C)C [GF-17]
CC50 (CEM-SS cells): 10.8 µM
CC50 at 6 days (in vitro): 8.9 µM
CC50 at 144 h (in vitro; CEM-SS cells): 18.7 µg/mL (≈ 8.9 µM)

GLKKLLGKLLKKLGKLLLK [GLK-19]
EC50 (HIV-1IIIB; 1IIIB): > 47.5 µM
IC50 (E. coli K12; K12): 10 µM
IC50 ([1]; USA-300): 160 µM
CC50 (CEM-SS cells): 25.1 µM

KKLLKKLKKLLK [KL-12]
inactive against E. coli K12 until (E. coli K12): > 160 mM
inactive against MRSA USA-300 until [1]: > 160 mM

RLFDKIRQVIRKF-NH2 [Retro-FK13]
EC50 (HIV-1IIIB; [2]): > 58.1 µM
CC50 at 6 days (in vitro): 33.7 µM

SKEKIGKEFKRIVQRIKDFLR [SK-21]
anti-HIV activity in words (HIV-1IIIB): active against HIV
EC50 (HIV-1IIIB; >100 μg/ml defined as HIV inactive): 28.5 µg/mL
EC50 (HIV-1IIIB; [2]): 10.8 µM
CC50 at 6 days (in vitro; CEM-SS cells): 22.5 µM

indolicidin (ILPWKWPWWPWRR; ends and bridges not checked; UniProt P33046 131-143, looked up) [bovine Trp- and Pro-rich cathelicidin peptide]
concentration required to be effective against HIV (HIV): 333 µg/mL
